Data taken from PMC7395068, “The evolution of strategies to minimise the risk of human drug-induced liver injury (DILI) in drug discovery and development” (Archives of Toxicology, 2020).
Read-outs that look alike come from different tables or passages of the source.

Columns and labels:
[1] = system: THLE or HepG2 cells, isolated mitochondria, BSEP; conditions: cited from earlier work
[2] = Phase 3 clinical trials; ref Aleo et al. 2019; cited from earlier work
[3] = cited from earlier work
[4] = system: HepG2 cells; conditions: In vitro Assay; ref O'Brien 2006; cited from earlier work
[5] = system: PHH; conditions: cited from earlier work
[6] = system: HepG2; conditions: cited from earlier work
[7] = system: HepG2 cells; conditions: In vitro Assay; ref Tolosa 2012; cited from earlier work
[8] = cited from earlier work; remark: listed apart in the source
[9] = system: hu-MPCC; conditions: cited from earlier work
[10] = system: human hepatocytes; conditions: cited from earlier work
[11] = system: PHH spheroids; conditions: cited from earlier work
[12] = system: RMPCC's; conditions: cited from earlier work
[13] = system: HepG2; conditions: cited from earlier work; remark: listed apart in the source
[14] = system: HepaRG cells; conditions: cited from earlier work
[15] = system: isolated mouse liver mitochondria; conditions: In vitro Assay; ref Porceddu 2012; cited from earlier work
[16] = system: rBsep; conditions: In vitro Assay; ref Dawson 2012; cited from earlier work
[17] = system: HepG2; design: method as in Albrecht 2019; conditions: In vitro Assay; ref Albrecht 2019; cited from earlier work
[18] = system: PHH; conditions: cited from earlier work; remark: listed apart in the source
[19] = plasma free fraction; cited from earlier work
[20] = read-out: Human plasma Cmax; total plasma Cmax.tot, median of 9 literature references; cited from earlier work
[21] = system: hLiMTs; test: Combined HCI (HCS) and cellular ATP 3D assay in hLiMTs; conditions: for AC50 / minimal effective concentration: Homo sapiens
[22] = system: primary human hepatocytes, NIH3T3 fibroblasts, BSEP, CYP3A4; conditions: cited from earlier work
[23] = system: HepaRG spheroids; test: Combined HCI (HCS) and cellular ATP 3D assay in HepaRG spheroids; conditions: for AC50 / minimal effective concentration: Homo sapiens
[24] = Plasma free fraction (fu) and unbound Cmax (Cmax,u); assay type: in vitro ADME, human; conditions: unbound plasma Cmax
[25] = system: hLiMTs; conditions: cited from earlier work
[26] = In vitro Assay, ref Albrecht 2019
[27] = In vitro Assay, ref Khetani 2012
[28] = Microtissue model structural based (HCI), combined HCS and ATP, MEC < 25 × Cmax.tot cut-off
[29] = In vitro Assay, ref Schadt 2015

Cc1cc(OCCCS(C)(=O)=O)cc(C)c1-c1cccc(COc2ccc3c(c2)OC[C@H]3CC(=O)O)c1 [TAK-875, reference compound]
Partition HRM hybrid scoring model classification ([1]; ref Aleo et al. 2019): DILI concern
clinical liver finding [2]: liver injury

CC(=O)N[C@@H](CS)C(=O)O [acetylcysteine]
In vivo DILI ([3]; ref Albrecht 2019): -VE
In vivo DILI ([3]; ref O'Brien 2006): -VE
In vivo DILI ([3]; ref Tolosa 2012): -VE
Structural based (HCI) [4]: +VE (lowest HCI endpoint IC50 (or in the absence of dose–response < 100 µM) < 30 × total human plasma exposure levels (Cmax.tot))
Cytotoxicity PHH 48 hrs [5, 26]: -VE
Cytotoxicity HepG2 48 hrs [6, 26]: -VE
Structural based (HCI) [7]: -VE
DILI +VE (5-8), DILI -VE (-4) ([8]; ref Chen 2016): -VE
DILI severity category ([8]; ref Chen 2016): vNo-DILI-Concern

O=C1O[C@H]([C@@H](O)CO)C(O)=C1O [ascorbic acid]
Cytotoxicity PHH 48 hrs [5, 26]: -VE
Cytotoxicity HepG2 48 hrs [6, 26]: -VE

CNCCc1ccccn1 [betahistine]
HMPCC's [9, 27]: -VE
In vivo DILI ([3]; ref Khetani 2012): +VE
In vivo DILI ([3]; ref Vorrink 2018): +VE
In vivo DILI ([3]; ref Xu 2008): +VE
Structural based (HCI) ([10]; In vitro Assay, ref Xu 2008): -VE
hLiMTs ATP <20 x Cmax ([11]; In vitro Assay, ref Vorrink 2018): -VE
RMPCC's [12, 27]: -VE

COc1ccc2c(c1)[C@]13CCCC[C@@H]1[C@H](C2)N(C)CC3 [dextromethorphan]
HMPCC's [9, 27]: -VE
In vivo DILI ([3]; ref Khetani 2012): -VE
In vivo DILI ([3]; ref Xu 2008): -VE
Structural based (HCI) ([10]; In vitro Assay, ref Xu 2008): -VE
RMPCC's [12, 27]: -VE
DILI +VE (5-8), DILI -VE (-4) ([8]; ref Chen 2016): -VE
DILI severity category ([8]; ref Chen 2016): vNo-DILI-Concern

C[S+](C)[O-] [dimethylsulfoxide]
In vivo DILI ([3]; in vivo): -VE
Cytotoxicity PHH 48 hrs [5]: -VE
Cytotoxicity HepG2 48 hrs [6]: -VE

CCO [ethanol]
Cytotoxicity PHH 48 hrs [5]: +VE
Cytotoxicity HepG2 48 hrs [6]: +VE

OC[C@H]1OC(O)[C@H](O)[C@@H](O)[C@@H]1O (stereo partly shown) [glucose, reference compound]
Cytotoxicity PHH 48 hrs [5, 26]: +VE
Cytotoxicity HepG2 48 hrs [13, 26]: +VE

NC(=O)NO [hydroxyurea]
HMPCC's [9]: +VE
In vivo DILI ([3]; in vivo): +VE
Structural based (HCI) [10]: -VE
RMPCC's [12]: +VE
DILI +VE (5-8), DILI -VE (-4) ([8]; ref Chen 2016): +VE
DILI severity category ([8]; ref Chen 2016): vMost-DILI-Concern

COc1ccc2[nH]cc(CCNC(C)=O)c2c1 [melatonin]
Cytotoxicity PHH 48 hrs [5, 26]: -VE
Cytotoxicity HepG2 48 hrs [6, 26]: -VE
Structural based (HCI) ([10]; In vitro Assay, ref Xu 2008): -VE

COC(=O)c1ccc(O)cc1 [methylparaben]
In vivo DILI ([3]; in vivo): -VE
Cytotoxicity PHH 48 hrs [5]: -VE
Cytotoxicity HepG2 48 hrs [13]: -VE

CO[C@H]1/C=C/O[C@@]2(C)Oc3c(C)c(O)c4c(O)c(c(/C=N/N5CCN(C)CC5)c(O)c4c3C2=O)NC(=O)/C(C)=C\C=C\[C@H](C)[C@H](O)[C@@H](C)[C@@H](O)[C@@H](C)[C@H](OC(C)=O)[C@@H]1C [rifampicin, reference compound]
DILI identification by high-throughput transcriptomics ([14]; HepaRG cells, BMCs in relation to 10 × human Cmax.tot, ref National Toxicology Program): identified
in vitro data EC2<=1x Cmax [15]: +VE
in vitro data EC20<=2uM [15]: -VE
In vivo DILI ([3]; ref Albrecht 2019): +VE
In vivo DILI ([3]; ref Dawson 2012): +VE
In vivo DILI ([3]; ref Gustafsson 2014): +VE
In vivo DILI ([3]; ref O'Brien 2006): +VE
In vivo DILI ([3]; ref Porceddu 2012): +VE
In vivo DILI ([3]; ref Schadt 2015): +VE
In vivo DILI ([3]; ref Tolosa 2012): +VE
Structural based (HCI) [4]: +VE
Cytotoxicity PHH 48 hrs [5, 26]: +VE
Structural based (HCI) [7]: +VE
Inhibition of rBsep cutoff<1& cmax u>.2 [16]: +VE
Inhibition of rBsep cutoff<3 [16]: +VE
DILI in vitro assay prediction, Vorrink (2018) ([11]; PHH spheroids, ATP, 14 days, IC20 < 20 × Cmax.tot, ref Vorrink et al. 2018): identified
Cytotoxicity HepG2 48 hrs [17]: +VE

Oc1cc(Cl)ccc1Oc1ccc(Cl)cc1Cl [triclosan]
In vivo DILI ([3]; ref Albrecht 2019): -VE
Cytotoxicity PHH 48 hrs [5, 26]: -VE
Cytotoxicity HepG2 48 hrs [13, 26]: +VE

N[C@@H]1[C@H]2CN(c3nc4c(cc3F)c(=O)c(C(=O)O)cn4-c3ccc(F)cc3F)C[C@@H]12 [trovafloxacin]
PHH ATP <100uM [18]: -VE
PHH/100uM, Proctor (2017) [18]: -VE
DILI identification by high-throughput transcriptomics [14]: identified
fu [19]: 0.240
Cmax [20]: 5.02 µM
AC50 ([21]; read-out: ATP endpoint AC50): 29.4 µM
minimal effective concentration ([21]; read-out: ATP endpoint MEC): 16.4 µM
AC50 ([21]; read-out: HCS endpoint AC50): 38.9 µM
minimal effective concentration ([21]; read-out: HCS endpoint MEC): 20.1 µM
DILI prediction hLiMTs (HCS-MEC) [21, 28]: +VE (MEC < 25 × Cmax.tot cut-off)
hLiMTs <25x Avg Cmax ATP ([21]; hLiMTs, ATP endpoint, cut-off <25x Avg Cmax): +ve
hLiMTs <100x Avg Cmaxu ATP ([21]; hLiMTs, ATP endpoint, cut-off <100x Avg Cmaxu): +ve (<100x Avg Cmaxu)
hLiMTs <25x Avg Cmax HCS ([21]; hLiMTs, HCS endpoints, cut-off <25x Avg Cmax): +ve
hLiMTs <100x Avg Cmaxu HCS ([21]; hLiMTs, HCS endpoints, cut-off <100x Avg Cmaxu): +ve (<100x Avg Cmaxu)
hLiMTs <25x Avg Cmax All ([21]; hLiMTs, all endpoints (ATP and HCS), cut-off <25x Avg Cmax): +ve
hLiMTs Cmax max All ([21]; hLiMTs, all endpoints, Cmax max used): +ve
hLiMTs Cmax min All ([21]; hLiMTs, all endpoints, Cmax min used): +ve
hLiMTs <10 uM All ([21]; hLiMTs, all endpoints, cut-off <10 uM): -ve
hLiMTs <100x Avg Cmaxu All ([21]; hLiMTs, all endpoints, cut-off <100x Avg Cmaxu): +ve (<100x Avg Cmaxu)
Assigned DILI category ([3]; in vivo): 3
In vivo DILI ([3]; in vivo): +VE
Rule of Two hybrid HRM Score ≥3, Aleo (2019) [1]: +VE (key: +VE: Rule of Two hybrid HRM Score ≥3)
Rule of Two hybrid HRM Score ≥8, Aleo (2019) [1]: -VE
DILI in vitro assay prediction, Schadt (2015) ([22]; BSEP & Metabolism based, ref Schadt et al. 2015): -VE
Cellular toxicity (3T3 cells) [22, 29]: -VE
Combined Assay [22, 29]: -VE
GSH adduct HML [22, 29]: -VE
Hepatocyte cellular toxicity [22, 29]: -VE
MitoTox 3T3 [22, 29]: -VE
TDI CYP3A4 [22, 29]: -VE
hBSEP inhibition [22, 29]: -VE
Structural based (HCI) [10]: +VE
DILI in vitro assay prediction, Vorrink (2018) [11]: identified
HepaRG <25x Avg Cmax ATP ([23]; HepaRG, ATP endpoint, cut-off <25x Avg Cmax): +ve
HepaRG <100x Avg Cmaxu ATP ([23]; HepaRG, ATP endpoint, cut-off <100x Avg Cmaxu): +ve (<100x Avg Cmaxu)
HepaRG <25x Avg Cmax HCS ([23]; HepaRG, HCS endpoints, cut-off <25x Avg Cmax): +ve
HepaRG <100x Avg Cmaxu HCS ([23]; HepaRG, HCS endpoints, cut-off <100x Avg Cmaxu): +ve (<100x Avg Cmaxu)
HepaRG <25x Avg Cmax All ([23]; HepaRG, all endpoints (ATP and HCS), cut-off <25x Avg Cmax): +ve
HepaRG Cmax max All ([23]; HepaRG, all endpoints, Cmax max used): +ve
HepaRG Cmax min All ([23]; HepaRG, all endpoints, Cmax min used): +ve
HepaRG <10 uM All ([23]; HepaRG, all endpoints, cut-off <10 uM): +ve (<10 uM)
HepaRG <100x Avg Cmaxu All ([23]; HepaRG, all endpoints, cut-off <100x Avg Cmaxu): +ve (<100x Avg Cmaxu)
AC50 ([23]; HepaRG, read-out: ATP endpoint AC50): 12.9 µM
minimal effective concentration ([23]; HepaRG, read-out: ATP endpoint MEC): 7.27 µM
AC50 ([23]; HepaRG, read-out: HCS endpoint AC50): 24.9 µM
minimal effective concentration ([23]; HepaRG, read-out: HCS endpoint MEC): 17.5 µM
DILI prediction HepaRG spheroids (HCS-MEC) [23, 28]: +VE (MEC < 25 × Cmax.tot cut-off)
Human plasma Cmax,u [24]: 1.205 µM
hLiMTs ATP <100uM [25]: -VE
hLiMTs/100uM, Proctor (2017) [25]: -VE
DILI +VE (5-8), DILI -VE (-4) ([8]; in vivo): +VE
DILI severity category (Chen et al. [2016]) ([8]; in vivo): Most
